Test results as given in US9968603B2, “Systems for sustained intraocular delivery of low solubility compounds from a port delivery system implant” (ForSight Vision4, Inc., priority 2013, dated 2018).
≈ marks a conversion by molar mass, not a printed value. Where a name gives a salt, the structure may show the parent alone. Read-outs that look alike come from different tables or passages of the source.

Experiments:
Aqueous solubility = type: physicochemical
[1] = Formulation (solubility) screening with cyclodextrins, concentrations achieved; type: physicochemical; conditions: for SBE-β-CD [CAPTISOL] Formulations (CD Excess), concentration: CD excess: Pazopanib 20 (5x), 50 (2.5x), 80 (2.5x), Sunitinib 2.5x, 4x, Axitinib 6x, Linifanib 8x, Motesanib 2x; for Expected Concentration Achieved: achieved vs expected formulation concentration
Protocol: For example, solid therapeutic agents are mixed in an aqueous solution with cyclodextrin, buffering agent, and/or other formulation agents of the current invention. The pH of the resulting mixture is adjusted with a base, for example, NaOH, or an acid, for example, citric acid. The mixture is then filtered, and the resulting filtered solution is used to fill the PDS.
A solubility screening of the therapeutic agent of the invention was carried out during the pre-formulation stage. For example, the solubility of the therapeutic agents in acids, cyclodextrin (CD) (e.g., SBEβCD (CAPTISOL®), HPβCD, HPγCD), hydrophilic stabilizing agents (e.g., PVP), and buffering agents (e.g., citric acid, histidine) were explored. Systematic formulation screening may include determination of CD:therapeutic agent ratio, pH, therapeutic agent concentration, and agents.
For example, in the formulation process with complexing agents such as cyclodextrins, a vial of solid therapeutic agent was mixed with a vial containing a solution of CD, acid, and agents in water. The pH of the resulting mixture was adjusted by NaOH. The mixture was then be filtered, and the resulting filtered solution was used to fill the PDS device or used to determine its stability.

[2] = Formulations with amphiphilic agents and non-aqueous solvents (no complexing agent), concentration dissolved; type: physicochemical; conditions: neat PEG 300
[3] = Viscosity and water content of cyclodextrin formulations; type: physicochemical; conditions: 80 mg/mL Pazopanib
[4] = Diffusion coefficient from Release Rate Index and single exponential model, compared with Stokes-Einstein prediction; conditions: 21 mg/mL Sunitinib, 2.5:1 molar ratio HPβCD
Protocol: The measured diffusion coefficient was compared to the diffusion coefficient predicted (using Stokes-Einstein equation to correct for MW (via volume of diffusing species) and temperature (via temperature dependence of the viscosity of water)) for a molecule of that molecular weight.
The rate was assessed by using the measured Release Rate Index (RRI) and volume for a particular device and using the single exponential diffusion model to determine a measured diffusion coefficient for a particular formulation and device combination. The measured diffusion coefficient was compared to the diffusion coefficient predicted (using Stokes-Einstein equation to correct for MW (via volume of diffusing species) and temperature (via temperature dependence of the viscosity of water)) for a molecule of that molecular weight.

SMILES: CNC(=O)c1ccccc1Sc1ccc2c(/C=C/c3ccccn3)n[nH]c2c1 [Axitinib, N-Methyl-2-((3-((1E)-2-(pyridin-2-yl)ethenyl)-1H-indazol-6-yl)sulfanyl)benzamide]
- solubility (Aqueous solubility; PBS, aqueous buffer, read-out: solubility in PBS): 0.3 µg/mL (≈ 0.776 µM)

SMILES: Cc1ccc(F)c(NC(=O)Nc2ccc(-c3cccc4[nH]nc(N)c34)cc2)c1 [Linifanib, N-[4-(3-Amino-1H-indazol-4-yl)phenyl]-N′-(2-fluoro-5-methylphenyl)urea]
- SBE-β-CD [CAPTISOL] Formulations (CD Excess), concentration [1]: 6 mg/mL
- Expected Concentration Achieved [1]: No
- concentration formulated [2]: 20000 µg/mL

SMILES: CC1(C)CNc2cc(NC(=O)c3cccnc3NCc3ccncc3)ccc21 [Motesanib, N-(2,3-Dihydro-3,3-dimethyl-1H-indol-6-yl)-2-[(4-pyridinylmethyl)amino]-3-pyridinecarboxamide]
- SBE-β-CD [CAPTISOL] Formulations (CD Excess), concentration [1]: 30 mg/mL
- Expected Concentration Achieved [1]: No

SMILES: Cc1ccc(Nc2nccc(N(C)c3ccc4c(C)n(C)nc4c3)n2)cc1S(N)(=O)=O [Pazopanib, 5-[[4-[(2,3-dimethyl-2H-indazol-6-yl)methylamino]-2-pyrimidinyl]amino]-2-methylbenzenesulfonamide monohydrochloride]
- viscosity ([3]; 2.2:1 molar ratio CAPTISOL): at least 5 centipoise
- water content ([3]; 5:1 CAPTISOL): approximately 0.5 g/mL
- solubility (Aqueous solubility; aqueous solution with 0.1% polysorbate-20, aqueous with cosolvent or surfactant or cyclodextrin): 0.1 µg/mL
- solubility in phosphate buffered saline (Aqueous solubility; neutral pH): insoluble

SMILES: CCN(CC)CCNC(=O)c1c(C)[nH]c(/C=C2\C(=O)Nc3ccc(F)cc32)c1C.O=C(O)CC(O)C(=O)O [Sunitinib, Butanedioic acid, hydroxy-, (2S)-, compound with N-[2-(diethylamino)ethyl]-5-[(Z)-(5-fluoro-1,2-dihydro-2-oxo-3H-indol-3-ylidine)methyl]-2,4-dimethyl-1H-pyrrole-3-carboxamide (1:1)]
- solubility (Aqueous solubility; aqueous solution, pH 4.1, aqueous buffer, read-out: solubility): > 25000 µg/mL
- solubility (Aqueous solubility; aqueous solution, pH 7.4, aqueous buffer, read-out: solubility): 10 µg/mL
- measured diffusion coefficient [4]: 3.3e-7 cm^2/s
- times lower than the predicted single molecule diffusion coefficient [4]: 20 times
